16 compounds from ChEMBL document CHEMBL4699438, “Toward the discovery and development of effective modulators of α-synuclein amyloid aggregation” (Eur J Med Chem, 2019) can be followed below.

Series [1] deals with Amyloid-beta precursor protein (Homo sapiens, UniProt P05067). In words: Inhibition of amyloid beta (1 to 40) (unknown origin) incubated for 24 hrs to 7 days by thioflavin S based fluorescence assay.
In series [2] the target is T1, Alpha-synuclein (Homo sapiens, UniProt P37840). In words: Inhibition of alpha-synuclein fibril formation (unknown origin) incubated for 24 hrs to 7 days by thioflavin S based fluorescence assay.
Series [3] can be described thus: Binding affinity to alpha-synuclein Y39W/A69C double-mutant (unknown origin) expressed in Escherichia coli BL21(DE3) cells assessed as binding constant for binding single molecule at 10 uM incubated for 10 mins by fluorescence analysis. On the set-up: species or system Homo sapiens.
Series [4] addresses T1, Alpha-synuclein. In words: Binding affinity to alpha-synuclein preformed fibrils (unknown origin) expressed in Escherichia coli BL21(DE3) cells incubated for 30 mins by spectrofluorometric analysis.
A short description of series [5]: Binding affinity to alpha-synuclein A69C/F94W double-mutant (unknown origin) expressed in Escherichia coli BL21(DE3) cells assessed as binding constant for binding two molecule at 10 uM by absorption spectroscopy. Details: species or system Homo sapiens.
The nature of series [6]: Binding affinity to alpha-synuclein A69C/F94W double-mutant (unknown origin) expressed in Escherichia coli BL21(DE3) cells assessed as binding constant for binding single molecule at 10 uM by absorption spectroscopy. On the set-up: species or system Homo sapiens.
Series [7] in a line: Binding affinity to alpha-synuclein A69C/F94W double-mutant (unknown origin) expressed in Escherichia coli BL21(DE3) cells assessed as binding constant for binding two molecule at 10 uM incubated for 10 mins by tryptophan fluorescence assay. Details: species or system Homo sapiens.
The nature of series [8]: Binding affinity to alpha-synuclein A69C/F94W double-mutant (unknown origin) expressed in Escherichia coli BL21(DE3) cells assessed as binding constant for binding two molecule at 10 uM incubated for 10 mins by fluorescence analysis. Details: species or system Homo sapiens.
For series [9], the target named is T1, Alpha-synuclein. In words: Binding affinity to alpha-synuclein LMV 100 kDa (unknown origin) expressed in Escherichia coli BL21(DE3) cells incubated for 30 mins by spectrofluorometric analysis.
The nature of series [10]: Binding affinity to alpha-synuclein A69C/F94W double-mutant (unknown origin) expressed in Escherichia coli BL21(DE3) cells assessed as binding constant for binding single molecule at 10 uM incubated for 10 mins by fluorescence analysis. On the set-up: species or system Homo sapiens.
In series [11] the target is T1, Alpha-synuclein. The experiment in a line: Binding affinity to alpha-synuclein oligomer (unknown origin) expressed in Escherichia coli BL21(DE3) cells incubated for 30 mins by spectrofluorometric analysis.
Series [12] can be described thus: Binding affinity to alpha-synuclein Y39W/A69C double-mutant (unknown origin) expressed in Escherichia coli BL21(DE3) cells assessed as binding constant for binding two molecule at 10 uM incubated for 10 mins by fluorescence analysis. Details: species or system Homo sapiens.
The nature of series [13]: Binding affinity to alpha-synuclein A69C/F94W double-mutant (unknown origin) expressed in Escherichia coli BL21(DE3) cells assessed as binding constant for binding single molecule at 10 uM incubated for 10 mins by tryptophan fluorescence assay. On the set-up: species or system Homo sapiens.
Series [14] addresses T1, Alpha-synuclein. In words: Inhibition of wild type alpha-synuclein aggregation (unknown origin) expressed in Escherichia coli BL21 cells incubated for 30 days by thioflavin T based fluorescence assay.
The target in series [15] is T1, Alpha-synuclein. The experiment in a line: Binding affinity to alpha-synuclein LMV 50 kDa (unknown origin) expressed in Escherichia coli BL21(DE3) cells incubated for 30 mins by spectrofluorometric analysis.
In series [16] the target is T1, Alpha-synuclein. In words: Inhibition of wild type human alpha-synuclein fibrillization expressed in Escherichia coli BL21(DE3)pLysS by thioflavin-T based fluorescence assay.
The target of series [17] is T1, Alpha-synuclein. The experiment in a line: Inhibition of alpha-synuclein fibril formation (unknown origin) incubated for 6 days by thioflavin S based fluorescence assay.
Series [18] deals with T1, Alpha-synuclein. The experiment in a line: Inhibition of human alpha-synuclein filament formation expressed in Escherichia coli BL21(DE3) cells incubated for 72 hrs by thioflavin S based fluorescence assay.
The target of series [19] is T1, Alpha-synuclein. The experiment in a line: Binding affinity to alpha-synuclein (unknown origin) expressed in Escherichia coli BL21(DE3) by circular dichroism analysis. A general note: Circular dichroism is widely used to follow secondary structure.
Series [20] in a line: Elimination half-life in human. It counts as ADME. Conditions: read-out: beta t1/2 (converted).

Sequence of Amyloid-beta precursor protein (P05067 whole entry): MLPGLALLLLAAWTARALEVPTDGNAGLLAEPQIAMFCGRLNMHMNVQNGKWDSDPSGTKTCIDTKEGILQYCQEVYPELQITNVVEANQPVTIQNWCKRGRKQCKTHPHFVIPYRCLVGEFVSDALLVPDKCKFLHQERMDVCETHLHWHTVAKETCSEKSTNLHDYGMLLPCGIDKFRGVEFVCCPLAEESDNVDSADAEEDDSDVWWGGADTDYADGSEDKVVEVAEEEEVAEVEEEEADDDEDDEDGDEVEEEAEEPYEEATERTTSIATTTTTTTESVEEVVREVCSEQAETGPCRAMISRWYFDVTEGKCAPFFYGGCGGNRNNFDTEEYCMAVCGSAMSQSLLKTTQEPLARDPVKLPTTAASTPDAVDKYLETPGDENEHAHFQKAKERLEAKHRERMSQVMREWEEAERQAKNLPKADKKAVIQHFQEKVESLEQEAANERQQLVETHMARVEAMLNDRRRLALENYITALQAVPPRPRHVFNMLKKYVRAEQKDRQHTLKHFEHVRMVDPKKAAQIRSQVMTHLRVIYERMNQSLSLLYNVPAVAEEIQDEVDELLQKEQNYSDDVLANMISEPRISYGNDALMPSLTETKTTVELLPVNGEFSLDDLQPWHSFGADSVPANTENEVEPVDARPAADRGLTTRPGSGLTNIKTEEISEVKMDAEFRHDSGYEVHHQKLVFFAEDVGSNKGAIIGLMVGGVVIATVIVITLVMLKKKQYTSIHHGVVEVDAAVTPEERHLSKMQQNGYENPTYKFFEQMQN

As for `CC1=C(/C=C/C(C)=C/C=C/C(C)=C/CO)C(C)(C)CCC1` [RETINOL], the IC50 in series [1] was found to be 180 nM; against Alpha-synuclein [2] it was 190 nM.

As to `CC1=C(/C=C/C(C)=C/C=C/C(C)=C/C(=O)O)C(C)(C)CCC1` [TRETINOIN], the IC50 in series [1] amounted to 180 nM; against Alpha-synuclein [2], 3000 nM.

For the compound `COc1cc(/C=C/C(=O)CC(=O)/C=C/c2ccc(O)c(OC)c2)ccc1O` [CURCUMIN], the Kd in series [3] amounted to 560 nM; at Alpha-synuclein [4] it was 500 nM; in series [5] it was 21 µM; in series [6], 10 µM; in [7], 20 µM; in [8], 7.7 µM. The Kd is 5 µM on Alpha-synuclein [9]; 690 nM in series [10]; 2000 nM on Alpha-synuclein [11]; 850 nM in series [12]; 58 µM in series [13]; 6.5 µM at Alpha-synuclein [15]. For the same compound, the IC50 on Alpha-synuclein [2] was 220 nM; against Alpha-synuclein [14], 162 µM.

`CC1=C(C/C=C(\C)CCC[C@H](C)CCC[C@H](C)CCCC(C)C)C(=O)c2ccccc2C1=O` [PHYTONADIONE] gave a concentration for half-maximal inhibition (IC50) against Alpha-synuclein [16] of 15 µM.

Consider `NCCc1ccc(O)c(O)c1` [DOPAMINE], for which the values for the IC50 against Alpha-synuclein [17] and against Alpha-synuclein [18] were 0.53 µM and 7.1 µM, respectively.

With `CC(C)C[C@H]1C(=O)N2CCC[C@H]2[C@]2(O)O[C@](NC(=O)[C@@H]3C=C4c5cccc6[nH]c(Br)c(c56)C[C@H]4N(C)C3)(C(C)C)C(=O)N12` [BROMOCRIPTINE], the IC50 on Alpha-synuclein [17] was found to be 24.7 µM.

`CCCN1C[C@H](CSC)C[C@@H]2c3cccc4[nH]cc(c34)C[C@H]21` [PERGOLIDE] showed an IC50 against Alpha-synuclein [17] of 7.9 µM. This IC50 lies about 3.1-fold lower than the previous one.

On to `CO/N=C(\C(=O)N[C@@H]1C(=O)N2C(C(=O)O)=C(CSc3nc(=O)c(=O)[nH]n3C)CS[C@H]12)c1csc(N)n1` [CEFTRIAXONE], for which binding at Alpha-synuclein [19] was put at a Kd of 530 nM.

For the compound `CC1=C(/C=C/C(C)=C/C=C/C(C)=C/C=O)C(C)(C)CCC1` [RETINAL], the IC50 is 180 nM in [1] and 190 nM at Alpha-synuclein [2].

In the case of `CC(C)=CCC/C(C)=C/CC/C(C)=C/CC/C(C)=C/CC1=C(C)C(=O)c2ccccc2C1=O` [MENATETRENONE], half-maximal inhibition against Alpha-synuclein [16] (IC50) was put at 15 µM.

On to `O=C1C=CC(=O)c2ccccc21` [NAPHTHOQUINONE], for which the midpoint of inhibition at Alpha-synuclein [16], the IC50, lay at 15 µM.

The compound `O=C(O[C@@H]1Cc2c(O)cc(O)cc2O[C@@H]1c1ccc(O)c(O)c1)c1cc(O)c(O)c(O)c1` [EPICATECHIN GALLATE] yielded an IC50 at Alpha-synuclein [18] of 9.8 µM. In addition, in series [20], the half-life is 204 min.

As for `COc1cc(/C=C/c2cc(/C=C/c3ccc(O)c(OC)c3)n(-c3cccc([N+](=O)[O-])c3)n2)ccc1O`, on Alpha-synuclein [14], the IC50 was 89.1 µM.

`CC1=CC(=O)c2ccccc2C1=O` [MENADIONE] came in with an IC50 against Alpha-synuclein [16] of 15 µM.

As to `COc1cc(/C=C/c2cc(/C=C/c3ccc(O)c(OC)c3)[nH]n2)ccc1O` [CURCUMIN PYRAZOLE], the IC50 against Alpha-synuclein [14] worked out at 127 µM.

Take `C#CCN(C)[C@H](C)Cc1ccccc1` [SELEGILINE]: the IC50 against Alpha-synuclein [17] came to 0.27 µM.

In general, IC50 refers to the midpoint of a concentration-inhibition curve. The low end stands for inhibition by little substance, the high end for a need for much substance. As usually defined, the Kd is the equilibrium constant for the complex coming apart.
